Source: patent publication US20240238268A1, “TREATMENTS AND METHODS FOR TREATING ALZHEIMER'S DISEASE” (Board of Supervisors of Louisiana State University and …, priority 2021, published 2024)

System: phosphorylated tau (pTau)
Assay: Phosphorylated tau level in brain, capillary-phoresis
Assay type: in vivo, mouse
Details: treated 3xTg mice; controls = 100%
Description: Capillary-phoresis immunoassay via ProteinSimple®: Quantification of all protein targets was achieved using Simple Western analysis in a Jess™ apparatus per the manufacturer's protocol (ProteinSimple, Bio-techne, Minneapolis, MN). Protein was extracted from dissected tissue in an extraction buffer consisting of T-PER® Tissue Protein Extraction Reagent (Cat. No. 78510, Thermo Fischer Scientific, Waltham, MA) and Halt™ Protease Inhibitor Cocktail (Cat. No. 87785, Thermo Fischer Scientific, Waltham, MA). Following homogenization and centrifugation (10,000×g, 5 min, 4° C.), protein concentration was determined in tissue protein supernatant samples using DC Protein Assay (Cat. No. 5000112, Bio-Rad Laboratories, Hercules, California) according to manufacturer instructions. […] Antibody diluent (ProteinSimple, Bio-techne, Minneapolis, MN) was used for all antibody dilutions as follows: PRMT4 (1:50, RRID: AB_2068436), PRMT6 (1:100, Cell Signaling Technology cat. 14641), eNOS (1:200, RRID: AB_10850618), nNOS (1:100, RRID: AB_2152488), iNOS (1:100, RRID: AB_10000625), DDAH2 (1:50, RRID: AB_2640442) Antibodies were detected using HRP-conjugated secondary anti-rabbit, and -mouse. Relative protein levels were calculated by measuring the area under the peak of a chemiluminescent chromatogram and normalized to total capillary chemiluminescence for a given sample. […]

For `CNCCN1CCC(c2cc(CN(C)C(=O)c3cccc(Oc4ccccc4)c3)ccn2)CC1` [TP-064, N-Methyl-N-((2-(1-(2-(methylamino)ethyl)piperidin-4-yl)pyridin-4-yl)methyl)-3-phenoxybenzamide], the “pTau level in cortex” value was 234%±8.33 and the “pTau level in hippocampus” value was 307%±31.4.
